Experimental data from patent publication US9512474B2, “Molecular targets and methods for formulation screening and preservative efficacy testing” (LONZA WALKERSVILLE INC., priority 2011, dated 2016).
“And” between values parts separate entries of the source, which are not always exact repeats. Identical values can stand only once.

How the values were obtained:
Assay type in all cases: cell-based
Staphylococcus aureus [1] = assay: pre-rRNA RT-PCR viability assay (preservative efficacy testing)
Source text: (§1) The specific systems for S. aureus, P. aeruginosa and S. epidermidis are designed on the 5′ end of the 23S rRNA. The three systems are species-specific. The forward primer hybridizes in the pre-rRNA region and the reverse primer and the forward probe in the mature rRNA region. The amplification is thus effective only if pre-rRNAs are present in the cells. FIG. 3 illustrates S. aureus, P. aeruginosa and S. epidermidis pre-rRNA-specific systems designed in the 5′ end of the 23S pre-rRNA for use with RT-PCR (forward primer, reverse primer, and forward probe).
(§2) Assays such as those disclosed herein, and assays developed under the guidelines of the provided examples, can be used in Formulation Screening and/or Preservative Efficacy Testing. An exemplary protocol is as follows: non-treated (or viable) and preservative-treated cells are analyzed in parallel with the same procedure and the same reagents: • Cells are calibrated to an expected density (CFU/ml) and collected by centrifugation on a filter membrane. • Two milliliters of RNA Booster (nutrients) are applied to the membrane of the filtration unit and these are incubated two hours for bacteria and four hours for fungi at 35° C.±2° C. (or appropriate temperature). • After incubation, the filtration units are centrifuged to remove the RNA Booster and 1.5 milliliters of lysis buffer are added to each membrane. • Cell lysates are recovered manually by pipetting and transferred into a lysis tube for a mechanical lysis process. • Lysate is then transferred in a sample prep tube. • RNA is extracted and purified using a known nucleic acid isolation method (i.e., RNA magnetic beads, silica resin). • DNA is removed by DNAse treatment to ensure predominantly an RNA target. • Eluted RNA is amplified by RT-PCR. The master mix used for the RT-PCR contains all reagents needed for the RT-PCR including specific primers and probe targeting the pre-rRNA or EF-3 mRNA sequences.
(§3) The referenced guidelines followed for this assay are the European Pharmacopoeia (EP)—Chapter 5.1.3 <<Efficacy of Antimicrobial Preservation>> and the United States Pharmacopeia (USP)—Chapter 51 <<Antimicrobial Effectiveness Testing>>. The value obtained by RT-PCR for the non-treated cells is compared to the value obtained for the treated cells. As used herein Ct stands for threshold cycle; i.e., the intersection between an amplification curve and a threshold line. According to the EP requirements, in a positive result as disclosed herein the difference of the Ct values is at least 3 logs, which corresponds to a ΔCt≧10 for bacteria and at least 2 logs, which corresponds to a ΔCt≧6.6 for fungi, after one day (24 hours) and seven days, respectively, for bacteria and fungi, of preservative treatment. USP requires data analysis after seven days and fourteen days for bacteria and fungi, respectively.
(§4) Preservative treatments were evaluated at high cells concentrations (10^6 and 10^5 cells per assay) that are commonly used for formulation screening. Five replicates at each cell concentration were analyzed. The Ct value corresponds to the RT-PCR cycle for which the level of fluorescence is outside the fluorescence background. The method compares Ct values for non-treated and treated cells and is expressed as the ΔCt.
(§5) The tables set forth below summarize the Ct values obtained for six bacteria and two fungi using six treatments: Heat, Isopropanol, Preservatives BAC, Poly-Q and IPBC and a commercial contact lens solution. Ct values obtained for non-treated cells (viable) are compared to Ct values obtained for treated cells. The ΔCt calculated is reported and must be ≧10 to meet the specification of 3 logs reduction for bacteria and must be ≧6.6 to meet the specification of 2 logs reduction for fungi. All assays are performed on the BD Max6 instrument from Becton Dickinson. Data are obtained by multiple operators on different days.

Pseudomonas aeruginosa [2] = assay: as above
Source text: as §1, §2, §3, §4, §5

Escherichia coli [3] = assay: Control plate of treated cells (colonies); conditions: 10^6 cells
Staphylococcus aureus [4] = assay: Control plate of treated cells (colonies); conditions: 10^6 cells
Pseudomonas aeruginosa [5] = assay: Control plate of treated cells (colonies); conditions: 10^6 cells
Serratia marcescens [6] = assay: Control plate of treated cells (colonies); conditions: 10^6 cells
Escherichia coli [7] = assay: pre-rRNA RT-PCR viability assay (preservative efficacy testing)
Source text: (§6) The specific systems for E. coli, B. subtilis and S. marcescens are designed on the 3′ end of the 16S rRNA transcript. The three systems are species-specific. In these examples, the reverse primer hybridizes on the pre-rRNA region and the forward primer and probe in the mature rRNA region. The amplification will therefore be effective only if pre-rRNAs are present in the cells. FIG. 2 illustrates E. coli, B. subtilis and S. marcescens pre-rRNA-specific systems designed in the 3′ end of the 16S pre-rRNA for use with RT-PCR (forward primer, reverse primer, and forward probe).
as §2, §3, §4, §5

Serratia marcescens [8] = assay: as above
Source text: as §6, §2, §3, §4, §5

Aspergillus brasiliensis [9] = assay: Control plate of treated cells (colonies); conditions: from day 1 to day 7 at room temperature (day not specified); 10^6 cells
Candida albicans [10] = assay: Control plate of treated cells (colonies); conditions: from day 1 to day 14 at room temperature (day not specified); 10^5 cells
Candida albicans [11] = assay: EF-3 mRNA RT-PCR viability assay (preservative efficacy testing); conditions: 10^5 cells
Source text: The specific system for C. albicans is designed on the mRNA of the EF-3 gene. This system is species-specific. The forward primer, the forward probe and the reverse primer hybridize in the internal sequence of the mRNA of the EF-3 gene. The amplification is thus effective only if the EF-3 mRNAs are present in the cells. FIG. 5 illustrates C. albicans EF-3 mRNA specific system designed in the internal sequence of the EF-3 mRNA for use with RT-PCR (forward primer, reverse primer, and forward probe).
as §2, §3, §4, §5

Aspergillus brasiliensis [12] = assay: pre-rRNA RT-PCR viability assay (preservative efficacy testing); conditions: 10^6 cells
Source text: The specific system for A. brasiliensis is designed on the 5′ end of the 5.8S rRNA. This system is species-specific. The forward primer hybridizes in the pre-rRNA region and the reverse primer and the forward probe in the mature rRNA region. The amplification is thus effective only if pre-rRNAs are present in the cells. FIG. 4 illustrates A. brasiliensis pre-rRNA-specific systems designed in the 5′ end of the 5.8S pre-rRNA for use with RT-PCR (forward primer, reverse primer, and forward probe).
as §2, §3, §4, §5

[13] = 1 H at room temperature, 10^5 cells
[14] = 1 H at room temperature, 10^6 cells
[15] = 24 H at room temperature, 10^5 cells
[16] = 24 H at room temperature, 10^6 cells

CC(C)O [Isopropanol]
Ct Treated (Staphylococcus aureus [1]; [13]): 29.99 and 29.43 and 29.12 and 29.97 and 29.89
Mean Ct (Treated) (Staphylococcus aureus [1]; [13]): 29.68
Δ Ct Viable − Dead (Staphylococcus aureus [1]; [13]): 12.80
Ct Treated (Staphylococcus aureus [1]; [14]): 26.32 and 26.40 and 25.27 and 24.94 and 26.57
Mean Ct (Treated) (Staphylococcus aureus [1]; [14]): 25.90
Δ Ct Viable − Dead (Staphylococcus aureus [1]; [14]): 13.09
Ct Treated (Pseudomonas aeruginosa [2]; [13]): 34.62 and 34.83 and 34.29 and 33.99 and 38.81
Mean Ct (Treated) (Pseudomonas aeruginosa [2]; [13]): 35.31
Δ Ct Viable − Dead (Pseudomonas aeruginosa [2]; [13]): 10.99
Ct Treated (Pseudomonas aeruginosa [2]; [14]): 34.59 and 33.28 and 33.21 and 34.18 and 33.26
Mean Ct (Treated) (Pseudomonas aeruginosa [2]; [14]): 33.70
Δ Ct Viable − Dead (Pseudomonas aeruginosa [2]; [14]): 13.45
Colonies on control plate of treated cells (Escherichia coli [3]; 1 H at room temperature): NC = Negative Control - Control plate of treated cells (10^6 cells) shows no colony on plate.
Colonies on control plate of treated cells (Staphylococcus aureus [4]; 1 H at room temperature): NC = Negative Control - Control plate of treated cells (10^6 cells) shows no colony on plate.
Colonies on control plate of treated cells (Pseudomonas aeruginosa [5]; 1 H at room temperature): NC = Negative Control - Control plate of treated cells (10^6 cells) shows no colony on plate.
Colonies on control plate of treated cells (Serratia marcescens [6]; 1 H at room temperature): NC = Negative Control - Control plate of treated cells (10^6 cells) shows no colony on plate.
Ct Treated (Escherichia coli [7]; [13]): 33.02 and 33.36 and 32.52 and 31.38 and 31.93
Mean Ct (Treated) (Escherichia coli [7]; [13]): 32.44
Δ Ct Viable − Dead (Escherichia coli [7]; [13]): 17.56
Ct Treated (Escherichia coli [7]; [14]): 32.91 and 32.51 and 32.31 and 32.98 and 33.93
Mean Ct (Treated) (Escherichia coli [7]; [14]): 32.93
Δ Ct Viable − Dead (Escherichia coli [7]; [14]): 21.00
Ct Treated (Serratia marcescens [8]; [13]): 29.10 and 30.70 and 31.00 and 29.90 and 30.30
Mean Ct (Treated) (Serratia marcescens [8]; [13]): 30.20
Δ Ct Viable − Dead (Serratia marcescens [8]; [13]): 13.20
Ct Treated (Serratia marcescens [8]; [14]): 26.90 and 26.20 and 25.90 and 25.40 and 25.50
Mean Ct (Treated) (Serratia marcescens [8]; [14]): 25.98
Δ Ct Viable − Dead (Serratia marcescens [8]; [14]): 13.18

Benzalkonium Chloride [BAC]
Ct Treated (Staphylococcus aureus [1]; [15]): 29.75 and 30.23 and 29.39 and 29.28 and 30.03
Mean Ct (Treated) (Staphylococcus aureus [1]; [15]): 29.73
Δ Ct Viable − Dead (Staphylococcus aureus [1]; [15]): 12.29
Ct Treated (Staphylococcus aureus [1]; [16]): 26.23 and 27.50 and 26.54 and 26.71 and 26.64
Mean Ct (Treated) (Staphylococcus aureus [1]; [16]): 26.72
Δ Ct Viable − Dead (Staphylococcus aureus [1]; [16]): 12.65
Mean Ct (Treated) (Pseudomonas aeruginosa [2]; [15]): 31.92
Δ Ct Viable − Dead (Pseudomonas aeruginosa [2]; [15]): 12.39
Mean Ct (Treated) (Pseudomonas aeruginosa [2]; [16]): 30.72
Δ Ct Viable − Dead (Pseudomonas aeruginosa [2]; [16]): 14.53
Colonies on control plate of treated cells (Escherichia coli [3]; 24 H at room temperature): NC = Negative Control - Control plate of treated cells (10^6 cells) shows no colony on plate.
Colonies on control plate of treated cells (Staphylococcus aureus [4]; 24 H at room temperature): NC = Negative Control - Control plate of treated cells (10^6 cells) shows no colony on plate.
Colonies on control plate of treated cells (Aspergillus brasiliensis [9]): NC = Negative Control - Control plate of treated cells (10^6 cells) shows no colony on plate.
Colonies on control plate of treated cells (Candida albicans [10]): NC = Negative Control - Control plate of treated cells (10^5 cells) shows no colony on plate.
Ct Treated (Candida albicans [11]; Day 1 at room temperature): 33.70 and 32.70 and 31.60 and 29.30
Mean Ct (Treated) (Candida albicans [11]; Day 1 at room temperature): 32.00
Δ Ct Viable − Dead (Candida albicans [11]; Day 1 at room temperature): 13.90
Mean Ct (Treated) (Candida albicans [11]; Day 7 at room temperature): 33.67
Δ Ct Viable − Dead (Candida albicans [11]; Day 7 at room temperature): 15.57
Mean Ct (Treated) (Candida albicans [11]; Day 14 at room temperature): 32.23
Δ Ct Viable − Dead (Candida albicans [11]; Day 14 at room temperature): 14.13
Colonies on control plate of treated cells (Pseudomonas aeruginosa [5]; 24 H at room temperature): NC = Negative Control - Control plate of treated cells (10^6 cells) shows no colony on plate.
Colonies on control plate of treated cells (Serratia marcescens [6]; 24 H at room temperature): NC = Negative Control - Control plate of treated cells (10^6 cells) shows no colony on plate.
Ct Treated (Aspergillus brasiliensis [12]; Day 1 at room temperature): 21.80 and 21.60 and 22.10
Mean Ct (Treated) (Aspergillus brasiliensis [12]; Day 1 at room temperature): 21.83
Δ Ct Viable − Dead (Aspergillus brasiliensis [12]; Day 1 at room temperature): 11.63
Ct Treated (Aspergillus brasiliensis [12]; Day 2 at room temperature): 22.40 and 21.90 and 23.90
Mean Ct (Treated) (Aspergillus brasiliensis [12]; Day 2 at room temperature): 22.73
Δ Ct Viable − Dead (Aspergillus brasiliensis [12]; Day 2 at room temperature): 12.53
Ct Treated (Aspergillus brasiliensis [12]; Day 7 at room temperature): 22.60 and 24.70 and 22.50
Mean Ct (Treated) (Aspergillus brasiliensis [12]; Day 7 at room temperature): 23.27
Δ Ct Viable − Dead (Aspergillus brasiliensis [12]; Day 7 at room temperature): 13.07
Ct Treated (Escherichia coli [7]; [15]): 32.65 and 31.54 and 31.77 and 32.76 and 32.45
Mean Ct (Treated) (Escherichia coli [7]; [15]): 32.23
Δ Ct Viable − Dead (Escherichia coli [7]; [15]): 18.57
Ct Treated (Escherichia coli [7]; [16]): 32.61 and 34.26 and 33.74 and 30.48 and 33.39
Mean Ct (Treated) (Escherichia coli [7]; [16]): 32.90
Δ Ct Viable − Dead (Escherichia coli [7]; [16]): 21.33
Mean Ct (Treated) (Serratia marcescens [8]; [15]): 36.13
Δ Ct Viable − Dead (Serratia marcescens [8]; [15]): 20.09
Ct Treated (Serratia marcescens [8]; [16]): 34.20 and 34.30 and 32.80 and 35.50
Mean Ct (Treated) (Serratia marcescens [8]; [16]): 34.20
Δ Ct Viable − Dead (Serratia marcescens [8]; [16]): 22.28
